Laboratory results: patent US7553642B2, “Branched neutral amino acid transporters acting as single molecule” (Human Cell Systems, Inc., priority 2003, dated 2009)
Entries after “also recorded” stand apart in the source; their conditions may differ. Read-outs that look alike come from different tables or passages of the source.

Experiments:
Assay type in all cases: cell-based
mouse LAT4 [1] = target: T1, mouse LAT4 (Mus musculus, UniProt Q8CGA3, K402E/P237S); assay: Inhibition of 14C-leucine uptake by oocytes injected with mouse LAT4 cRNA; details: 14C-leucine 100 μM, 10 mM unlabeled compound, Na+-free uptake solution, Xenopus oocytes
T1 construct: An expression plasmid vector pcDNA 3.1(+) containing cDNA of mouse LAT4 was cleaved by a restriction enzyme XbaI; expressed in transfected cells; host or cells: Xenopus laevis oocytes injected with cRNA (from pcDNA3.1(+), IMAGE clone 2235970)
Method: In this regard, uptake of ^14C-leucine (100 μM) into the oocytes was measured in the presence or the absence of 10 mM of various compounds (unlabeled) in the Na^+-free uptake solution.

human LAT3 [2] = target: T2, human LAT3 (Homo sapiens, UniProt O75387); assay: Inhibition of 14C-leucine uptake by Xenopus oocytes injected with human LAT3 cRNA
T2 construct: An expression plasmid vector pSPORT1 containing cDNA of human LAT3 was cleaved by a restriction enzyme NotI, and cRNA; expressed in transfected cells; host or cells: Xenopus laevis oocytes injected with cRNA
T2 sequence (O75387 1-559): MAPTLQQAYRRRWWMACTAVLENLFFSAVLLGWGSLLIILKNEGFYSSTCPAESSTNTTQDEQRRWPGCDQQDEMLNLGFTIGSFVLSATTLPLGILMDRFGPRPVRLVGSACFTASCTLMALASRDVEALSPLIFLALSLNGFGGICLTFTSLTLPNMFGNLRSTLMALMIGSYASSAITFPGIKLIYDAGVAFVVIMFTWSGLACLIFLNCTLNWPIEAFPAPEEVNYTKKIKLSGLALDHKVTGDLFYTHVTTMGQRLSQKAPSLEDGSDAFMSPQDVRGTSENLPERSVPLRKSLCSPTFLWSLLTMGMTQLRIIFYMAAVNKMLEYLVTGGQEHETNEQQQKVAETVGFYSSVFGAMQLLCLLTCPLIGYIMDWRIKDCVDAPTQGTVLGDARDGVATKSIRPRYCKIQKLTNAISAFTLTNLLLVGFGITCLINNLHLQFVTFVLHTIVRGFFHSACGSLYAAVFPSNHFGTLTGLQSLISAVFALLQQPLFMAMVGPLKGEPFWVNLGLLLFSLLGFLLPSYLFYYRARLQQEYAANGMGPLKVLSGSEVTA

human LAT3 [3] = target: T2, human LAT3; assay: Uptake of radiolabeled amino acids by Xenopus oocytes injected with human LAT3 cRNA; details: 14C-labeled substrate in place of 14C-leucine, Na+-free uptake solution, 10 minutes
Method: The substrate uptake by the injected oocytes using leucine as a substrate was carried out according to the method described by Kanai et al. (Kanai and Hediger, Nature, Vol. 360, 467-471 (1992)), as follows. The oocytes was cultured for 30 minutes in the Na^+-free uptake solution (100 mM of choline chloride, 2 mM of potassium chloride, 1.8 mM of calcium chloride, 1 mM of magnesium chloride, 5 mM of HEPES, pH 7.4) using ^14C-leucine (100 μM) as a substrate, and uptake rate of the substrate was measured by counting radioactivity in the cell.
The oocytes was injected with 25 ng of human LAT3 gene cRNA to be expressed thereby, and cultured for 3 days.
The experiment of the leucine uptake was carried out as follows according to the above described method in Example 1 (1). That is, the oocytes injected with the cRNA of the human LAT3 gene or water as a control were cultured for 10 minutes in Na^+-free uptake solution containing ^14C-leucine (100 μM) (refer to Example 1 (1)), and measured uptake of radioactivity into the cells.
The leucine uptake was conducted at the leucin concentrations of 1, 3, 10, 30, 60, 100, 200, 400, 1000, 2000 and 3000 μM using the oocytes injected with cRNA of the human LAT3 gene according to the above-described method in Example 3 (1). […] In addition, it was clarified that the leucine transport mediated by LAT3 is composed of high affinity component and low affinity component (FIG. 6, inserted figure).
An uptake experiment of various amino acids and amino acid analogs was carried out using the oocytes injected with cRNA of the human LAT3 gene according to the above-described method in Example 3 (1), provided that various radiolabeled amino acids were utilized in place of the ^14C-leucine.

mouse LAT4 [4] = target: T1, mouse LAT4; assay: Uptake of radiolabeled amino acids by Xenopus oocytes injected with mouse LAT4 cRNA; details: 14C-labeled substrate in place of 14C-leucine
Method: The oocytes was injected with 25 ng of cRNA of the mouse LAT4 gene to be expressed thereby, and cultured for 3 days.
An experiment of leucine uptake was carried out as follows according to the above-described method in Example 3 (1). That is, the oocytes injected with cRNA of the mouse LAT4 gene or water as a control were cultured for 10 minutes in the Na^+-free uptake solution containing […] (100 μM) (refer to Example 3 (1)), and measured the uptake of radioactivity into the cells.
The leucine uptake was conducted at the leucin concentrations of 0.01, 0.03, 0.1, 0.3, 1, 3 and 10 mM, using the oocytes injected with cRNA of the mouse LAT4 gene according to the above-described method in Example 3 (1). […] In addition, it was clarified that the leucine transport mediated by LAT4 is composed of a high affinity component and a low affinity component, just like the leucin uptake mediated by LAT3.
An uptake experiment of various amino acids and amino acid analogs was carried out using the oocytes injected with cRNA of the mouse LAT4 gene according to the above-described method in Example 3 (1). In this regard, in place of ^14C-leucine, various radiolabeled amino acids were utilized.

LAT1 = assay: Influence of N-ethylmaleimide on leucine uptake mediated by LAT1; details: 5 mM; 14C-L-leucine 100 μM, 10 minutes
human LAT3 [5] = target: T2, human LAT3; assay: Influence of N-ethylmaleimide on leucine uptake by oocytes expressing human LAT3; details: pretreatment with 5 mM for 15 minutes; 14C-L-leucine 100 μM, 10 minutes
Method: Each of the oocytes injected with cRNA of the human LAT3 gene, injected with cRNA of the human LAT3 gene and cRNA of 4F2hc gene, or injected with water as a control was cultured for 10 minutes in the Na^+-free uptake solution containing ^14C-L-leucine (100 μM) (refer to Example 3 (2)), and uptake of radioactivity into the oocytes was measured according to the method described in Example 3 (1). In this regard, influences of pretreatment with 5 mM of N-ethylmaleimide for 15 minutes, and the presence or absence of 5 mM of N-ethylmaleimide in the uptake solution on the ^14C-leucine uptake were investigated.

[6] = 14C-leucine 100 μM, 10 mM unlabeled compound, Na+-free uptake solution, 10 minutes, Xenopus oocytes

T1 sequence (Q8CGA3 whole entry P237S/K402E): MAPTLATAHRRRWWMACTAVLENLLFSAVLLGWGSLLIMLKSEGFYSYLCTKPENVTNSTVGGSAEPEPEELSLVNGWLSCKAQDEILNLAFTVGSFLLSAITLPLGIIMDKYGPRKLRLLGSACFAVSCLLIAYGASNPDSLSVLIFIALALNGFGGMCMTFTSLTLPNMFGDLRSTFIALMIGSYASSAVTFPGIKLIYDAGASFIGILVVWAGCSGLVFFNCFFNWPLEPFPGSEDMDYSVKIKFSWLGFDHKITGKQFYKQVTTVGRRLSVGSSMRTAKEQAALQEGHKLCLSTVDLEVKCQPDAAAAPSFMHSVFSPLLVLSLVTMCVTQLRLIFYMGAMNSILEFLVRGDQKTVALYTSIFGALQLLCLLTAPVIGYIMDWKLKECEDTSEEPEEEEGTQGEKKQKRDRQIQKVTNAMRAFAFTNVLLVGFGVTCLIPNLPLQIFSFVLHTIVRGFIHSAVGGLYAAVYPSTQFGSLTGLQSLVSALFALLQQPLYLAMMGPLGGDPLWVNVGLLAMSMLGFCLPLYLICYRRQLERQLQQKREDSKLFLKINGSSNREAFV

Row | SMILES | inhibitory effect on the LAT4 mediated 14C-leucine uptake (mouse LAT4 [1]) | inhibitory effect on the LAT3 mediated 14C-leucine uptake (human LAT3 [2]; [6]) | further results
1 | NC1(C(=O)O)CC2CCC1C2 (centres unmarked) [BCH, 2-aminobicyclo-(2,2,1)-heptane-2-carboxylic acid] | strong inhibition | strong inhibition | –
2 | CC(=O)N[C@@H](CC(C)C)C(=O)O [N-acetyl-leucine, N-acetyl-L-leucine] | – | significant inhibitory activity | –
3 | CSCC[C@H](N)C(=O)O [L-methionine] | strong cis-inhibitory effect | – | uptake of radiolabeled substrate into oocytes expressing human LAT3 (human LAT3 [3]): small but significant uptake; uptake of radiolabeled substrate into oocytes expressing mouse LAT4 (mouse LAT4 [4]): a large amount of uptake; inhibitory effect on the LAT3 mediated 14C-leucine uptake (human LAT3 [2]): strong cis-inhibitory effect
4 | O=C(O)c1ccccc1O [salicylic acid] | – | weak but significant inhibitory effects | –
5 | CC(C)CN [isobutylamine] | – | significant inhibitory activity | –
6 | N=C(N)NCCC[C@H](N)C(=O)O [arginine] | did not affect | did not affect | –
7 | CC(C)CC(C)N (centres unmarked) [1,3-dimethyl-n-butylamine] | – | significant inhibitory activity | –
8 | CCN1C(=O)C=CC1=O [N-ethylmaleimide] | – | – | effect on 14C-L-leucine uptake mediated by LAT1 (LAT1): did not affect; effect on 14C-L-leucine uptake mediated by human LAT3 (human LAT3 [5]): completely abolished; also recorded: inhibited
9 | NCCCC[C@H](N)C(=O)O [lysine] | did not affect | did not affect | –
10 | N[C@H](Cc1c[nH]cn1)C(=O)O [D-histidine] | relatively strong inhibitory effect | – | –
11 | NCCc1ccccc1 [phenylethylamine, 2-phenylethylamine] | – | significant inhibitory activity | –
12 | CC(C)C[C@@H](N)C(=O)O [D-leucine] | relatively strong inhibitory effect | relatively strong inhibitory effect | uptake of radiolabeled substrate into oocytes expressing human LAT3 (human LAT3 [3]): significant uptake; uptake of radiolabeled substrate into oocytes expressing mouse LAT4 (mouse LAT4 [4]): significant uptake
13 | CSCC[C@@H](N)C(=O)O [D-methionine] | relatively strong inhibitory effect | – | –
14 | N[C@H](CO)Cc1ccccc1 [phenylalaninol, L-phenylalaninol] | – | relatively strong inhibitory effects; also recorded: strongly inhibited | –
15 | COC(=O)[C@@H](N)CC(C)C [leucine methylester, L-leucine-methylester] | – | significant inhibitory activity | –
16 | N[C@@H](CC(=O)O)C(=O)O [aspartic acid] | did not affect | did not affect | –
17 | CC[C@H](C)[C@H](N)C(=O)O [L-isoleucine] | strong cis-inhibitory effect | strong cis-inhibitory effect | uptake of radiolabeled substrate into oocytes expressing human LAT3 (human LAT3 [3]): a large amount of uptake; uptake of radiolabeled substrate into oocytes expressing mouse LAT4 (mouse LAT4 [4]): a large amount of uptake
18 | CCCN(CCC)S(=O)(=O)c1ccc(C(=O)O)cc1 [probenecid] | – | weak but significant inhibitory effects | –
19 | CC(C)CCN [Isopentylamine, isopentylamine] | – | significant inhibitory activity | –
20 | N[C@@H](CCC(=O)O)C(=O)O [glutamic acid] | did not affect | did not affect | –
21 | CC(C)C[C@H](N)CO [leucinol, L-leucinol] | – | strongly inhibited | –
22 | O=C(O)[C@@H]1CCCN1 [L-proline] | did not affect | did not affect | uptake of radiolabeled substrate into oocytes expressing human LAT3 (human LAT3 [3]): small but significant uptake
23 | CC(C)[C@H](N)C(=O)O [L-valine] | strong cis-inhibitory effect | strong cis-inhibitory effect | uptake of radiolabeled substrate into oocytes expressing human LAT3 (human LAT3 [3]): a large amount of uptake; uptake of radiolabeled substrate into oocytes expressing mouse LAT4 (mouse LAT4 [4]): a large amount of uptake
24 | N[C@@H](Cc1ccccc1)C(=O)O [L-phenylalanine] | strong cis-inhibitory effect | strong cis-inhibitory effect | uptake of radiolabeled substrate into oocytes expressing human LAT3 (human LAT3 [3]): a large amount of uptake; uptake of radiolabeled substrate into oocytes expressing mouse LAT4 (mouse LAT4 [4]): a large amount of uptake
25 | CC(C)[C@H](N)CO [valinol, L-valinol] | – | relatively strong inhibitory effects | –
26 | COc1ccc2c(c1)c(CC(=O)O)c(C)n2C(=O)c1ccc(Cl)cc1 [indomethacin] | – | strong inhibitory effect | –
27 | C[C@@H]1Cc2c(Cl)cc(C(=O)N[C@@H](Cc3ccccc3)C(=O)O)c(O)c2C(=O)O1 [ochratoxin A] | – | strong inhibitory effect; also recorded: strongly inhibited | –
